The record followed here is patent publication US20110190492A1, “DIAGNOSTIC PROBE FOR CONFORMATION DISEASE” (TOHOKU UNIVERSITY, priority 2005, published 2011).

One data set addresses T1, amyloid β protein (Homo sapiens, UniProt P05067).
T1 construct: from tissue; host or cells: paraffin-embedded human brain sections (temporal lobe, hippocampus) of Alzheimer disease patients
As to the kind of experiment: Staining test on a brain section of an Alzheimer disease patient (amyloid β protein). It is filed as binding, human (Alzheimer disease patient). The conditions noted are these: 100 μM compound in 50% ethanol, 10 minutes, fluorescence microscopy. The source says: (§1) (1) Brain specimens at the temporal lobe and the hippocampus of patients to which a definitive diagnosis of Alzheimer disease had been given, and those of normal senile persons were used. The specimens were given by our coworker, Fukushimura Hospital, Longevity Medicine Institute, and we were given their consent of use of the specimens for our study purpose by the bereaved of the patients (Fukushimura Hospital Ethical Review Board Approval No. 20).
(§2) (2) The paraffin-embedded brain tissue was cut into slices having a thickness of 6 μm or 8 μm, and extended and dried on a slide. The paraffin brain section was processed for paraffin removal in xylene twice for 10 minutes, 100% ethanol twice for 5 minutes, 90% ethanol for 5 minutes and running water for 10 minutes in that order.
(§3) (3) For pretreatment prior to the staining treatment with a compound of the invention, the sections were processed for autofluorescence removal with lipofuscin. First, the paraffin-removed sections were dipped in 0.25% KMnO4 solution for 20 minutes. These were washed with PBS, twice for 2 minutes, then dipped in 0.1% K2S2O5/oxalic acid solution for about 5 seconds, and then further washed with PBS, three times for 2 minutes.
(§4) (4) About 150 μl of a 100 μM solution of a compound of the invention dissolved in 50% ethanol was dropwise applied to the section and reacted for 10 minutes. After dipped five times in tap water, the section was entrapped with Fluor Save Reagent (Calbiochem), and analyzed through microscopy with a fluorescence microscope (Nikon, Eclipse 80i). The images were taken with a digital camera (Nikon Dxm 1200F or Photometrics' Cool SNAP ES).

The next data set concerns neurofibrillary tangle. The experiment in a line: Staining test on a brain section of an Alzheimer disease patient (neurofibrillary tangle). The class given is binding, human (Alzheimer disease patient). The following applies: 100 μM compound in 50% ethanol, 10 minutes, fluorescence microscopy.
Excerpt: as §1, §2, §3, §4

Data set [1] in a line: Acute toxicity test, intravenous administration to mice. It is filed as in vivo. The conditions noted are these: mice observed for 7 days. As to the method:
The compounds of the invention were tested for their acute toxicity through intravenous administration thereof to mice. Four Crj:CD1 male mice formed one test group, and some test groups of those mice were used (the mean body weight of the mice of each group was from 31 to 32 g). A test compound was dissolved in a mixture of 1 N HCl, polyethylene glycol-400 and distilled water, or dissolved in DMSO, and then diluted with distilled water. This was administered to each mouse via its tail vein.

In data set [2] the test system is histidine-requiring Salmonella typhimurium TA100 and TA98 strains. The experiment in a line: Mutagenicity test (reverse mutation test). It is filed as cell-based. The procedure: In view of their use, it is desirable that the compounds of the invention have no mutagenicity or have little mutagenicity to a level causing no problem. For investigating the gene mutagenesis of the compounds of the invention, herein carried out was a reverse mutation test with histidine-requiring Salmonella typhimurium TA100 and TA98 strains. Two tests were carried out. One is a test for dose determination test; and the other is for mutagenicity.
The test methods and the mutagenicity of the compounds of the invention are mentioned below. In the dose determination test, six doses of 0.160, 0.800, 4.00, 20.0, 100 and 500 μg/plate (common ratio 5) were tried.
As a result of the dose determination test, when the mutagenicity of the test compound was admitted, then the actual test for mutagenicity was carried out, using the dose capable of giving an accurate dose-reaction curve. When no mutagenicity of the test compound was admitted in the dose determination test and when the growth inhibition of the test cells was admitted therein, then the dose to present the growth inhibition was taken as the maximum dose; and when the growth inhibition was not admitted, then a dose of 5000 μg/plate was taken as the maximum dose. With that, the actual test for mutagenicity was carried out on the level of 6 doses (common ratio 2).
First, a test compound was dissolved or suspended in DMSO, then diluted in order to prepare test compound liquids having a varying concentration.
100 μl of a test compound liquid or a negative control (DMSO) solution was put into a sterilized test tube. Then, for the case in the absence of a metabolic activation system (−S9mix), 500 μl of 0.1 mol/liter sodium-phosphate buffer (pH 7.4) was added to it; and for the case in the presence of a metabolic activation system (+S9mix), 500 μl of S9mix was added to it.
Next, 100 μl of the test strain suspension that had been cultivated with shaking at 37° C. for 8 hours was added to it, and preincubated in a shaking thermostat at 37° C. for 20 minutes. After shaken, 2 ml of top agar was added to it, and the contents were mixed.
Next, the mixture was poured onto a minimal glucose agar plate medium (plate) and spread uniformly thereon, then the top agar was solidified, and the plate was transferred into a thermostat and incubated at 37° C. for 48 hours.
Then, the number of the colonies grown through reverse mutation was counted.
For counting it, […]. After area correction and miss-counting correction, the number of the colonies was computed. When the colony analyzer could not be used owing to the deposition of the test compound or the cell growth inhibition, then the number of the colonies was counted with the naked eye.
In case where the number of the colonies through reverse mutation increased two times or more that of the negative control and where the dose dependency or the reproducibility of the increase was admitted, then the tested sample was decided as positive. When the sample was decided as positive, then the relative activity that indicates the relative comparative value of the intensity of the mutagenicity of the test compound was obtained according to the following formula:
Relative Activity={(number of colonies per plate having the concentration)−(number of colonies per negative control plate)}/the value of concentration (mg/plate).

A further data set deals with T2, Amyloid β protein 1-40 (Homo sapiens, UniProt P05067).
T2 construct: Amyloid β protein 1-40 (bought from Peptide Laboratory); purchased Peptide Laboratory
T2 sequence (P05067 672-711): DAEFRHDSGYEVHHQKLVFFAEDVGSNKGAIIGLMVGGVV
As to the kind of experiment: Fluorescence Congo red method. The class given is binding. The following applies: 1 h, compound 10 μM, amyloid β protein 5 μM. The procedure:
(1) Amyloid β protein 1-40 (bought from Peptide Laboratory) was dissolved in a phosphate buffer (pH 7.4) and left at 37° C. for 4 days.
(2) 50 μl of Congo red dissolved in the buffer was applied to a 96-well microplate (final concentration, 0.1, 0.3, 1 μM).
(3) 100 μl of amyloid β protein was added to it (final concentration 5 μM), and left as such for 30 minutes.
(4) 100 μl of a test compound dissolved in the buffer was added to it (final concentration, 10 and left as such for 60 minutes.
(5) Using a fluorescence microplate reader (Spectra Max 190 by Molecular Device), the sample was analyzed at the optimum exciting wavelength and the test wavelength that had been previously determined.
(6) The fluorescence intensity in the presence of the test compound, amyloid β protein and Congo red is represented by A; that in the presence of the test compound and Congo red is by B; that in the presence of the test compound and amyloid β protein is by C; and that in the presence of only the test compound is by D. The β structure recognition of the test compound is computed according to the following formula:
β structure recognition (%) of test compound={(A−B)/(C−D)}×100.

A short description of data set [3]: Brain permeability of [^18F]-labeled compound in mice. It is filed as in vivo, male ICR mice. The conditions noted are these: 2 minutes after intravenous administration, radioactivity. As to the method:
The partitioning HPLC fraction containing [^18F]THK525, [^18F]THK702, [^18F]THK727 or [^18F]THK763, obtained through labeling production, was diluted with distilled water (about 20 mL), then loaded in Sep-Pak tC18 cartridge (by waters). The cartridge was washed with distilled water (5 to 10 mL), and then the labeled compound was eluted with EtOH (3 to 5 mL). A suitable amount of 5% Polysorbate 80/ethanol solution was added to the EtOH eluate, and the solvent was evaporated away with heating at 80° C. with a rotary evaporator. Thus obtained, a mixture of the labeled compound and Polysorbate 80 was dissolved in physiological saline, thereby preparing a labeled compound-containing physiological saline. Thus prepared, the radiochemical purity of the chemical solution was 95% or more.
[^18F]THK525, [^18F]THK702, [^18F]THK727 or […] to male ICR mice (6 to 7 weeks-age) via their tail vein. From the radioactivity deposition in the brain after 2 and 30 minutes, the brain permeability of the labeled compound was assessed. The radiochemical purity of the labeled compound-containing physiological saline used was at least 95%, and the relative radioactivity thereof was from 18.5 to 148 GBq/μmol; and from 1.11 to 2.22 MBq of the labeled compound was administered to one mouse. Regarding the assessment of the radioactivity deposition, the proportion of the radioactivity per the unit weight of the sample tissue to the overall radioactivity given to the test animal (% injected dose/g of tissue; % ID/g) was taken as the index. For measuring the radioactivity, used was a gamma counter (1480 WIZARD, by Perkin Elmer). The experiment protocol was as follows: A labeled compound was administered to mice via their tail vein. After 2 and 30 minutes, the cervical spine of the mouse was dislocated under ether anesthesia. Immediately, the blood was collected from its heart, and the whole brain (including cerebellum and brainstem) was taken out. The radioactivity and the tissue weight of each sample were measured, and from the data, % ID/g was computed.

Where [4] appears, read: irrespective of the absence or presence of S9mix.

Like-named read-outs stand apart in the source and are kept apart here.

T1 sequence (P05067 672-713 limits assumed): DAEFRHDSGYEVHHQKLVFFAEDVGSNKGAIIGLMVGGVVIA

For `CN1C=CC(=C/C=C2\C=Nc3ccccc32)C=C1` [THK-185, 3-[2-(1-methyl-1H-pyridin-4-ylidene)-ethylidene]-3H-indole], the “binding to amyloid β protein in the brain section of an Alzheimer disease patient” value (from here on “binding to amyloid β protein”) at amyloid β protein was “bound to the amyloid β protein”. The “binding to neurofibrillary tangle in the brain section of an Alzheimer disease patient” value (shortened to “binding to neurofibrillary tangle”) in the data set on neurofibrillary tangle was “bound to the amyloid β protein and the neurofibrillary tangle”.
For `CN(C)c1ccc(-c2nnc(-c3sc4ccccc4c3Cl)o2)cc1` [THK-258, [4-[5-(3-chloro-benzo[b]thiophen-2-yl)-[1,3,4]oxadiazol-2-yl]-phenyl]-dimethylamine], the “binding to amyloid β protein” value on amyloid β protein is recorded as “bound to the amyloid β protein”. For the same molecule, in the data set on neurofibrillary tangle, the “binding to neurofibrillary tangle” value is “bound to the amyloid β protein and the neurofibrillary tangle”.
For `CN1C=CC(=CC=C2C=CC(=O)C=C2)C=C1` [THK-317, 4-[2-(1-methyl-1H-pyridin-4-ylidene)-ethylidene]-cyclohexa-2,5-dienone], the “binding to amyloid β protein” value on amyloid β protein is reported as “bound to the amyloid β protein”. Also, the “binding to neurofibrillary tangle” value in the data set on neurofibrillary tangle is “bound to the amyloid β protein and the neurofibrillary tangle”.
Consider `OCC(CF)COc1ccc2nc(/C=C/c3cnc(N4CCOCC4)s3)oc2c1` (stereo not drawn) [THK-727, 2-fluoromethyl-3-[2-[2-(2-morpholin--yl-thiazol-5-yl)-vinyl]-benzoxazol-6-yloxy]-propan-1-ol], for which the “binding to amyloid β protein” value on amyloid β protein is “The white space arrow indicates amyloid β protein”. For the same molecule, the “binding to neurofibrillary tangle” value in the data set with neurofibrillary tangle is given as “the white space arrow head indicates neurofibrillary tangle”. The “Maximum Permissible Dose” value in data set [1] is given as “≧10 mg/kg”. Moreover, the “relative activity” value in data set [2] (setting [4]) was “minus”. Also, the activity at 10 µM was found to be 73.6% at Amyloid β protein 1-40 (Congo red 0.1 μM, read-out: Binding Percentage of Compound in the presence of 0.1 μM CR); 35% at Amyloid β protein 1-40 (Congo red 0.3 μM, read-out: Binding Percentage of Compound in the presence of 0.3 μM CR); 3.1% at Amyloid β protein 1-40 (Congo red 1 μM, read-out: Binding Percentage of Compound in the presence of 1 μM CR).
As for `OCC(CF)Oc1ccc2nc(/C=C/c3cnc(N4CCCC4)s3)oc2c1` (stereo not drawn) [THK-752, (E)-6-[(1-fluoromethyl-2-hydroxy)ethoxy]-2-[2-[2-(pyrrolidin-1-yl)-thiazol-5-yl]ethenyl]benzoxazole], the “binding to amyloid β protein” value at amyloid β protein was “The white space arrow indicates amyloid β protein”. Moreover, the “Maximum Permissible Dose” value in data set [1] is “≧10 mg/kg”. The “relative activity” value in data set [2] (setting [4]) was “minus”.
Turning to `CNc1ncc(/C=C/c2nc3ccc(OC(CO)CF)cc3o2)s1` (stereo not drawn) [THK-761, (E)-6-[(1-fluoromethyl-2-hydroxy)ethoxy]-2-[2-[2-methylaminothiazol-5-yl]ethenyl]-benzoxazole], the “binding to amyloid β protein” value on amyloid β protein is “The white space arrow indicates amyloid β protein”. Further, the “Maximum Permissible Dose” value in data set [1] is recorded as “≧10 mg/kg”. For the same molecule, the “relative activity” value in data set [2] (in the presence of S9mix) is “weak”.
Turning to `CN(C)c1ncc(/C=C/c2nc3ccc(OC(CO)CF)cc3o2)s1` (stereo not drawn) [THK-763, (E)-6-[(1-fluoromethyl-2-hydroxy)ethoxy]-2-[2-[2-dimethylamino-thiazol-5-yl]ethenyl]benzoxazole], at amyloid β protein, the “binding to amyloid β protein” value is listed as “The white space arrow indicates amyloid β protein”. In data set [1], the “Maximum Permissible Dose” value is listed as “≧10 mg/kg”. Besides, in data set [2] (in the presence of S9mix), the “relative activity” value is recorded as “weak”.
In the case of `FCCOc1ccc2nc(/C=C/c3cnc(N4CCOCC4)s3)oc2c1` [[^18F]THK-525], in data set [3], the “Brain Permeability of [^18F]-labeled Compound: Brain” value is given as 4.7 % ID/g or ml and the “Brain Permeability of [^18F]-labeled Compound: Plasma” value (shortened to “Brain Permeability … Plasma”) was 2.8 % ID/g or ml.
For `OCC(CF)Oc1ccc2nc(/C=C/c3cnc(N4CCOCC4)s3)oc2c1` (stereo not drawn) [[^18F]THK-702], in data set [3], the “Brain Permeability of [^18F]-labeled Compound: Brain” value is reported as 4.2 % ID/g or ml and the “Brain Permeability … Plasma” value is recorded as 2.3 % ID/g or ml.
As for `OCC(CF)COc1ccc2nc(/C=C/c3cnc(N4CCOCC4)s3)oc2c1` (stereo not drawn) [[^18F]THK-727], in data set [3], the “Brain Permeability of [^18F]-labeled Compound: Brain” value was 4.1 % ID/g or ml and the “Brain Permeability … Plasma” value is 2.9 % ID/g or ml.
Turning to `CN(C)c1ncc(/C=C/c2nc3ccc(OC(CO)CF)cc3o2)s1` (stereo not drawn) [[^18F]THK-763], in data set [3], the “Brain Permeability of [^18F]-labeled Compound: Brain” value is given as 4.6 % ID/g or ml and the “Brain Permeability … Plasma” value is given as 3.7 % ID/g or ml.
